Measurements: patent US10736908B2, “Antiviral aryl-amide phosphodiamide compounds” (Merck Sharp & Dohme Corp., priority 2016, dated 2020)
Read-outs that look alike come from different tables or passages of the source.

Assays:
[1] = tested on: HIV-1 (H9/IIIB strain); experiment: Multiple round HIV-1 infection assay (Viking assay) in MT4-GFP cells; assay type: cell-based; conditions: HIV-1 replication in MT4-GFP cells
Experimental: Assessing Antiviral Potency in a Multiple Round HIV-1 Infection Assay (Viking Assay)
The antiviral activity of the tenofovir prodrugs of the Examples herein was assessed in an assay that measures the rate of replication of HIV in cell culture, termed the Viking assay (VIral KINetics in Green cells) and performed as follows. HIV-1 replication was monitored using MT4-gag-GFP clone D3 (hereafter designated MT4-GFP), which are MT-4 cells modified to harbor a GFP reporter gene, the expression of which is dependent on the HIV-1 expressed proteins tat and rev. Productive infection of an MT4-GFP cell with HIV-1 results in GFP expression approximately 24 h post-infection. MT4-GFP cells were maintained at 37° C./5% CO2/90% relative humidity in RPMI 1640 supplemented with 10% fetal bovine serum, 100 U/ml penicillin/streptomycin, and 400 μg/ml G418 to maintain the reporter gene. For infections, MT4-GFP cells were placed in the same medium lacking G418 and infected overnight with HIV-1 (H9/IIIB strain) virus at an approximate multiplicity of infection of 0.01 in the same incubation conditions. […] Compound plates were prepared by dispensing compounds dissolved in DMSO into wells of 384 well poly-D-lysine-coated plates (0.2 μl/well) using an ECHO acoustic dispenser. Each compound was tested in a 10-point serial 3-fold dilution (typical final concentrations: 8.4 μM-0.42 nM). Controls included no inhibitor (DMSO only) and a combination of three antiviral agents (efavirenz, indinavir, an in-house integrase strand transfer inhibitor at final concentrations of 4 μM each). Cells were added (50 μL/well) to compound plates and the infected cells were maintained at 37° C./5% CO2/90% relative humidity.
Infected cells were quantified at two time points, ˜48 h and ˜72 h post-infection, by counting the number of green cells in each well using an Acumen eX3 scanner. The increase in the number of green cells over ˜24 h period gives the reproductive ratio, R0, which is typically 5-15 and has been shown experimentally to be in logarithmic phase (data not shown). Inhibition of R0 is calculated for each well, and IC50s determined by non-linear 4-parameter curve fitting.

[2] = Prodrug stability assay in bio-relevant media (FaSSIF with Pancreatin); assay type: in vitro ADME; conditions: HPLC peak area of prodrug at 5 h divided by that at 0 h; 0.5 mg/mL Pancreatin in FaSSIF, 37° C.
Experimental: Prodrug Stability Assay in Bio-Relevant Media
The following assay was employed to evaluate the stability of the prodrugs in simulated gastrointestinal tract conditions. Preparation of fasted state simulated intestinal fluid (FaSSIF) using Phares SIF Powder was carried out according to protocols from Phare Drug Delivery AG (Baselland, Switzerland). For sample preparation, 10 μL stock solutions (10 mM) of prodrug substance in DMSO was added to 990 μL of 0.5 mg/mL Pancreatin solution (Fisher CAS #8049-47˜6) in FaSSIF. Two samples were prepared for each compound. If the sample was a clear solution, it was directly analyzed by HPLC. If the sample was not clear, the sample was diluted with 100% MeCN, maintained at 37° C. and observed 5 h later. If the sample was clear, HPLC analysis was directly performed. If the sample was still not clear, the sample was diluted with 100% ACN and assayed by HPLC. All the samples were vortexed for 3 min and observed before injection. For the diluted samples, the area is multiplied by a dilution factor when the data is analyzed. The analysis was carried out with an Agilent 1100 series HPLC with autosampler. The column was a Poroshell 120 EC-C18, 4.6×50 mm, 2.7 μm. The flow rate was 1.8 mL/min, and the injection volume was 5 or 10 μL. UV detection was in the range 210-400 nm. The mobile phase consisted of solvent A (water plus 10 mM tetrabutylammonium bromide) and solvent B (acetonitrile) with a gradient of: 90% solvent A at 0 min, changing to 95% solvent B over 6 min, maintaining for 1.5 min, then reverting to 90% solvent A over 1.6 min. The HPLC peak area of the prodrug at 5 h was divided by the HPLC peak area of the prodrug at 0 h, to generate the % claimed parent ratio, which is summarized in Table 2 for gastrointestinal (GI) Tract stability.

[3] = Human immunodeficiency virus 1, IIIB, 50% NHS (normal human serum), read-out: Viking, IC50 (50% NHS)
[4] = Human immunodeficiency virus 1, IIIB, head prints 100% NHS (normal human serum), read-out: Viking, IC50 (100% NHS)
[5] = 50% NHS (normal human serum), read-out: Viking, IC50 (50% NHS)
[6] = head prints 100% NHS (normal human serum), read-out: Viking, IC50 (100% NHS)

| Compound | IC50 [1, 3] [nM] | IC50 [1, 4] [nM] | GI Tract stability [2] [%] | IC50 [1, 5] [nM] | IC50 [1, 6] [nM] |
| --- | --- | --- | --- | --- | --- |
| CC(C)OC(=O)C(C)(C)NP(=O)(CO[C@H](C)Cn1cnc2c(N)ncnc21)NC(=O)c1ccc(Cl)cc1 (single isomer, unassigned) [Example 1B] | 24.4 | 6.9 | 95.48 | – | – |
| CCCCCOC(=O)C(C)(C)NP(=O)(CO[C@H](C)Cn1cnc2c(N)ncnc21)NC(=O)c1ccc(Cl)cc1 (single isomer, unassigned) [Example 3A] | – | – | 99.9 | 33.2 | 5.1 |
| CCCCCOC(=O)C(C)(C)NP(=O)(CO[C@H](C)Cn1cnc2c(N)ncnc21)NC(=O)c1ccc(Cl)cc1 (single isomer, unassigned) [Example 3B] | – | – | 75.98 | 10.9 | 2.3 |
| CCCOC(=O)C(C)(C)NP(=O)(CO[C@H](C)Cn1cnc2c(N)ncnc21)NC(=O)c1ccc(Cl)cc1 (single isomer, unassigned) [Example 4B] | – | – | 84.76 | 17.6 | 3.6 |
| C[C@H](Cn1cnc2c(N)ncnc21)OCP(=O)(NC(=O)c1ccc(Cl)cc1)NC(C)(C)C(=O)OC1CCC1 (single isomer, unassigned) [Example 6B] | – | – | 90.33 | 13.5 | 4.1 |
| C[C@H](Cn1cnc2c(N)ncnc21)OCP(=O)(NC(=O)c1ccc(Cl)cc1)NC(C)(C)C(=O)OC1CCOCC1 (single isomer, unassigned) [Example 9B] | – | – | 99.1 | 74.8 | 16.9 |
| CC(C)OC(=O)C(C)(C)NP(=O)(CO[C@H](C)Cn1cnc2c(N)ncnc21)NC(=O)c1ccc(F)cc1 (single isomer, unassigned) [Example 10B] | – | – | 99.96 | 89.8 | 25.7 |
| CCCCCOC(=O)C(C)(C)NP(=O)(CO[C@H](C)Cn1cnc2c(N)ncnc21)NC(=O)c1ccc(F)cc1 (single isomer, unassigned) [Example 11A] | – | 4.1 | 72.61 | 15 | – |
| CCCCCOC(=O)C(C)(C)NP(=O)(CO[C@H](C)Cn1cnc2c(N)ncnc21)NC(=O)c1cccs1 (single isomer, unassigned) [Example 15A] | 34.1 | 8.4 | 95.44 | – | – |
| CCCCCOC(=O)C(C)(C)NP(=O)(CO[C@H](C)Cn1cnc2c(N)ncnc21)NC(=O)c1ccc(C)cc1 (single isomer, unassigned) [Example 18B] | – | – | 92.38 | 10.5 | 2 |
